From patent publication US20060084704A1, “Methods and compositions for enhancing degradation of nuclear receptor transcription factors and uses thereof” (priority 2004, published 2006)

Columns and labels:
[1] = biological target: T1, AR (Homo sapiens, UniProt P10275, T878A); type: cell-based; details: LNCaP, JC9 5 micromolar about 20 hours, then cycloheximide 15 micrograms/milliliter
T1 construct: LNCaP cells express an endogenous mutant AR that is found in prostate cancer patients; host or cells: LNCaP
T1 sequence (P10275 1-920 T878A): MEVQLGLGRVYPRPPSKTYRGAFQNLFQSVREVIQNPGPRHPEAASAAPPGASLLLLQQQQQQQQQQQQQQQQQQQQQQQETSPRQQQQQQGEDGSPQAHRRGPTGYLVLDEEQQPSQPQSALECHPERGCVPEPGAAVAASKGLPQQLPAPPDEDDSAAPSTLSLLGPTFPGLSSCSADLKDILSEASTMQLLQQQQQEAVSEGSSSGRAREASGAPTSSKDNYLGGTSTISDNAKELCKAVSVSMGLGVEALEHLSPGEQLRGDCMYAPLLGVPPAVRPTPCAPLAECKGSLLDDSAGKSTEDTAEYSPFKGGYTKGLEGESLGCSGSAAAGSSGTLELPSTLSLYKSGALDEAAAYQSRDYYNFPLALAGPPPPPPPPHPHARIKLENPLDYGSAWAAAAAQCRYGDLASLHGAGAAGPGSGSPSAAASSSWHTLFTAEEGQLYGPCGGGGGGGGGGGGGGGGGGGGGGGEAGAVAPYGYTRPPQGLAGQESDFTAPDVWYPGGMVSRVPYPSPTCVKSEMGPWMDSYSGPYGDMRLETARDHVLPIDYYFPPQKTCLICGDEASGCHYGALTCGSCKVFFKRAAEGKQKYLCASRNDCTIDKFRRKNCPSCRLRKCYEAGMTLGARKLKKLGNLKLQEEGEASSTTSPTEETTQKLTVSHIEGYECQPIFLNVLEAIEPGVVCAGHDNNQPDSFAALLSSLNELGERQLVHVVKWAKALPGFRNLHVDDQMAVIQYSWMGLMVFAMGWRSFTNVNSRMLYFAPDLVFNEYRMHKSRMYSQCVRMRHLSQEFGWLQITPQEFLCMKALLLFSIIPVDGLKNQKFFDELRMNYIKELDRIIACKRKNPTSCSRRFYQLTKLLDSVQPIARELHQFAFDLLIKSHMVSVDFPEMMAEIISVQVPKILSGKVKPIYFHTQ
Procedure: To determine whether the observed reduction of AR protein levels was due to protein degradation rather than inhibition of AR protein synthesis, a second set of three replicate experiments was performed. […] In the absence of new AR protein synthesis, any alterations in AR levels would be mainly attributable to protein degradation. LNCaP cells were cultured, and incubated with JC9 (5 micromolar) for about 20 hours.

[2] = tested on: LNCaP cells; assay: LNCaP growth assay (cell count); type: cell-based, human; details: 5 μM
Procedure: LNCaP cells express an endogenous mutant AR that is found in prostate cancer patients. This clinically relevant cell model was used to study JC9's effect in suppressing prostate cancer cell growth. Cells were plated at a density of 6.3×10^4 cells/well in 6-well tissue culture dishes. Two days later, the complete medium was aspired and 10% charcoal/dextran-treated (hormone depleted) serum-containing medium was added. Test compounds, JC9 and hydroxyflutamide (HF) were then added to the medium at a final concentration of 5 μM with or without 1 nM of DHT. For vehicle control, the same amount of DMSO was added. For the subsequent 5 days, the medium was aspired once per day, and fresh medium containing test compounds and/or DHT was added. At designated times, a portion of cells was harvested by trypsinization, and cell count was performed using a hemacytometer.

[3] = biological target: T2, PPAR beta (Homo sapiens, UniProt Q03181); assay: Western blot of LNCaP cell lysates, PPAR beta; type: cell-based; details: 1 or 2 micromolar, 24 hours, presence or absence of DHT
T2 construct: endogenous in cells; host or cells: LNCaP
T2 sequence (Q03181 1-441): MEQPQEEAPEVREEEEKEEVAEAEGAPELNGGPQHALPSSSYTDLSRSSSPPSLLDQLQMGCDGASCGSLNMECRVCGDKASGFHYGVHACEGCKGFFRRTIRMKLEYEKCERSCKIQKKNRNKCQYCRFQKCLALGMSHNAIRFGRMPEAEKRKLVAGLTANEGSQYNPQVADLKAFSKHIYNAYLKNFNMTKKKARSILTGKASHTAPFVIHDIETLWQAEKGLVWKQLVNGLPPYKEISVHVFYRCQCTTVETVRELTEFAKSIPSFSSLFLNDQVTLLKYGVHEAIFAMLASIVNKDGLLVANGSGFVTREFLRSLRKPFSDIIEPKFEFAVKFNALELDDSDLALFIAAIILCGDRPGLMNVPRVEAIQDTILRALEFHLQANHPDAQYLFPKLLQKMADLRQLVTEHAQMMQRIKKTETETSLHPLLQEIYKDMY
Procedure: Human prostate cancer LNCaP cells and T47D cells were plated at a density of 7×10^5 cells per 60 millimeter tissue culture dish in […] (RPMI) medium containing 10% FBS. The medium was changed to RPMI or DME medium containing 10% charcoal-stripped serum 24 hours later to deplete cellular androgens or estrogens. After another 24 hours, treatment with the test compounds began. The test dose of JC15 was 1 or 2 micromolar and the test does of JC9 was 1, 5 and 10 micromolar. LNCap cells also received dihydrotestosterone (DHT) (3 nanomolar). Control cells received a corresponding amount of the vehicle, dimethylsulfoxide (DMSO) (<0.04%) for an equivalent exposure time. Cells were incubated with JC15 for 24 or 48 hours, and were lysed in 250 microliters of 1×SDS/PAGE loading buffer. Approximately 40 micrograms of total cellular protein was loaded in each lane of a pre-cast gel (NuPAGE, Invitrogen). Protein separation and transfer were performed following the manufacturer's instructions.
For the prostate cell lysates, androgen receptor (AR) protein was visualized by incubating the resultant membranes with an anti-AR antibody (BD-PharMingen), followed by chemiluminescence detection (ECL Plus, Amersham). […] The resultant protein signals were quantified using densitometry and NIH ImageJ software.

Compound | time within which degradation of existing AR protein was enhanced [1] | cell growth (cell number) in the presence of DHT ([2]; with 1 nM DHT, 5 days) | cell growth (cell number) ([2]; without DHT, 5-day incubation) | cellular concentration of PPAR beta [3]
COc1ccc(C=CC(=O)C=C(O)C=Cc2ccc(OC)c(OC)c2)cc1OC [JC9, 5-hydroxy-1,7-bis(3,4-dimethoxyphenyl)-1,4,6-heptatrien-3-one] | ≤ 4 h | good potency to decrease LNCaP cell growth | only a minimal number of viable cells | 
CCOC(=O)CCC(C(=O)C=Cc1ccc(O)c(OC)c1)C(=O)C=Cc1ccc(O)c(OC)c1 (stereo not shown) [JC15, 7-(4-hydroxy-3-methoxyphenyl)-4-[3-(4-hydroxy-3-methoxyphenyl)acryloyl]-5-oxo-hept-6-enoic acid ethyl ester] |  |  |  | did not substantially affect
